Reference: publication PMC9611471 (Pharmaceutics, 2022)
pIC50: −log10 of the molar value. Entries after “also recorded” stand apart in the source; their conditions may differ.

How the values were obtained:
A549 and H1299 cells = assay: Cell proliferation / viability assay (EZ-CYTOX)
[1] = In vitro metabolic stability, mouse liver microsomes; type: in vitro ADME; conditions: pooled liver microsomes, NADPH, 37 °C, 0 and 30 min
SK1 = SK1 (Homo sapiens, UniProt Q9NYA1); assay: SK1 activity assay (Adapta screening system)
Sequence of SK1 (Q9NYA1 whole entry): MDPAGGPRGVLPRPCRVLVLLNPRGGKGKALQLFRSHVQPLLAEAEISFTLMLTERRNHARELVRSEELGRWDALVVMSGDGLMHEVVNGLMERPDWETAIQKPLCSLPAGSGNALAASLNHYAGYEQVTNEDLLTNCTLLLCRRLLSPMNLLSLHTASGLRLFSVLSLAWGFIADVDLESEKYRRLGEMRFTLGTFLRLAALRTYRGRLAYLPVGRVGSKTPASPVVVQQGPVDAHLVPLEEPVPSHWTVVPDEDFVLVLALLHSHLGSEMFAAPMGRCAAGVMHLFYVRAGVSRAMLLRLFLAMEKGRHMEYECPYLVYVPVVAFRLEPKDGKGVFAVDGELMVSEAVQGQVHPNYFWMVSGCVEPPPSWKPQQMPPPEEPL

A549 cells [2] = assay: SK1 and SK2 protein (Western blotting) and mRNA (qRT-PCR) levels; type: cell-based, human; conditions: 5 and 10 μM, 24 h
Protocol: Western blotting measured changes in apoptosis-related proteins (PARP, BAX, BCL-2, Caspase-3). A549 cells (1 × 10^6 cells per well in 6-well plates) were incubated for 24 h. Cells were treated with concentrations of the compounds and incubated for 24 h. Then, cells were dissolved on ice for two hours with a lysis buffer containing a mixture of protease and phosphatase inhibitors. The lysate was centrifuged at 12,000× g for 15 min at 4 °C, and the supernatant was collected. Protein concentrations were measured using a bicinchoninic acid protein assay kit. Total protein was separated by 8–10% sodium dodecyl sulfate–polyacrylamide gel electrophoresis (SDS-PAGE) and transferred onto polyvinylidene fluoride (PVDF) membranes. After being blocked with 5% skim milk, membranes were probed overnight at 4 °C with primary antibodies against SK1, SK2, PARP, BAX, Bcl-2, Caspase-3, and β-actin. Then, the membranes were incubated with subsequent secondary antibodies at room temperature. Then, the protein expressions were measured by Amersham Imager 680 (GE Healthcare, Leiden, WZ, The Netherlands).
RNAs were isolated using the Trizol/chloroform reagent (Invitrogen, Waltham, MA, USA). […] For quantitative analysis of various genes, qRT-PCR was performed using the Bio-Rad CFX384 Touch Real-time PCR detection system (Bio-Rad, Hercules, CA, USA) with SYBR Premix Ex Taq (Takara Bio, Shiga, Japan) for 40 cycles.

A549 cells [3] = assay: Cytotoxicity after SK1/SK2 siRNA transfection; type: cell-based, human; conditions: A549 cells transfected with siSK1, siSK2; 24 h
Protocol: Control small interfering RNA (siControl) was obtained from Bioneer (Daejeon, Korea), while SK1 (sc-44114) and SK2 (sc-39225) siRNA (siSK1 and siSK2) were purchased from Santa Cruz Biotechnology (Dallas, TX, USA). Cells were transfected using Lipofectamine RNAiMAX Reagent (Invitrogen, Carlsbad, CA, USA) according to the manufacturer’s instructions. Transfection efficiency was monitored by Western blot. After 24 h of infection, cytotoxicity was measured using infected cells.

[4] = Serum analysis of tumor xenograft mice; type: in vivo; conditions: serum biochemical assays; 5 mg/kg i.p., 29 days
Protocol: Five-week-old BALB/c-nu/nu male mice were purchased from Orient Bio Inc. (Seongnam, Gyeonggi-do, Korea). The mice were housed in a climate-controlled room (22 ± 2 °C, 50 ± 10% relative humidity) and specific pathogen-free conditions with a 12 h light/dark cycle and adapted for a week with free access to food and water. Cages, bedding, and drinking water were autoclaved and changed regularly. The cancer cell suspension {3 × 10^7 cells/ 150 μL phosphate-buffered saline (PBS)} was inoculated subcutaneously into the right flank. Measurable tumors were found 7–8 days after cell inoculation, and tumors grew in 90% of the injection site two weeks later. The mice were randomly divided into test groups (12 mice per group) when the tumor volume reached 100 mm^2 about two weeks after the inoculation (experimental day 0). The control group (vehicle-treated group) and Compound 4 (5 mg/kg) were administered i.p. 3 times a week. The formulation of Compound 4 was prepared in a mixture of 10% DMSO + 90% PBS. The tumor growth rate and body weights in each of the two groups were measured every three days using a Vernier caliper and a digital weighing balance, respectively. Tumor volume was calculated as l × b^2 × 0.52, where l is the length and b is the width. […]
Blood samples were centrifuged at 3000× g for 20 min, and levels of ALT, AST, ALP, sphingosine, ceramide, and S1P were measured using a kit.

A549 cells [5] = assay: Annexin V-FITC apoptosis analysis; type: cell-based, human; conditions: 24 h
Protocol: A549 cells (1 × 10^5 cells) were seeded in into a 12-well plate. […] After harvesting the cells, the binding buffer was added and then incubated with annexin-V-FITC and PI at room temperature for 15 min. The stained cells were analyzed with MACS Quant Analyzer 10 Flow Cytometer (Miltenyi Biotec, Bergisch Gladbach, Germany) within 1 h.

A549 cells [6] = assay: Levels of sphingosine, ceramide and S1P (ELISA); type: cell-based, human; conditions: 5 and 10 μM
Protocol: After seeding 1 × 10^6 cells/well into a 6-well plate and incubating for 24 h, the synthetic compounds were treated by concentration. Then, cells were collected and freezing and thawing were repeated three to five times, and centrifuged supernatant was used for testing. The levels of sphingosine, ceramide, and S1P were measured according to the proposed manual using each ELISA kit (Mybiosource, Inc., San Diego, CA, USA).

[7] = In vitro metabolic stability, human liver microsomes; conditions: pooled liver microsomes 0.5 mg/mL, NADPH, 37 °C, 0 and 30 min

Cc1cc(CN(Cc2cc(C)cc(CS(=O)(=O)c3ccccc3)c2)c2ccc(CCN3CCC(CO)CC3)cc2)cc(CS(=O)(=O)c2ccccc2)c1 [Compound 4, (1-(4-(Bis(3-methyl-5-((phenylsulfonyl)methyl)benzyl)amino)phenethyl)piperidin-4-yl)methanol]
cytotoxic effects compared with FTY720 (A549 and H1299 cells; 20 and 40 μM, A549 and H1299 cells): cytotoxic effects similar to those of FTY720
pIC50 (A549 and H1299 cells; Homo sapiens, 24 h, read-out: IC50 (cytotoxic effect)): 5.11
MS MLM [1]: 38.5
selectivity for SK1 (SK1; SK1 vs SK2, compared to PF-543): lower selectivity for SK1 compared to PF-543
inhibition at 10 µM (SK1; read-out: SK1 inhibitory efficacy): 31%
expression of proteins and mRNAs of SK1 and SK2 (A549 cells [2]): did not affect
dependence of cytotoxic efficacy on SK1/SK2 (siRNA knockdown) (A549 cells [3]): more dependent on SK1, although SK2 is also partially involved
hepatotoxicity [4]: does not appear to cause hepatotoxicity
apoptotic effect (annexin-V) (A549 cells [5]; 5 μM): significant effect
apoptotic effect (annexin-V) (A549 cells [5]; 10 μM): significantly higher apoptotic effect compared to PF-543
S1P levels (A549 cells [6]): reduced; also recorded: inhibited S1P at a level similar to that of PF-543
ceramide levels (A549 cells [6]): increased
sphingosine levels (A549 cells [6]): slightly lower sphingosine expression than PF-543
MS HLM [7]: 30.2
